Reference: PubChem BioAssay AID179 (DTP/NCI, 2004)
Active and inactive are the calls of the source.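 Rule for the calls: active = compounds giving half or more protection of infected cells from virus-caused growth loss, again on retest; inactive = the rest.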 Where a SMILES comes first, the peptide text is derived from it.

Test system: CEM cells HIV-1 protection, formazan growth assay
Assay: NCI AIDS Antiviral Assay
Settings: for IC50: measured here: growth of uninfected CEM cells
Procedure, shortened: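 Category rules: moderately active means at least 50% protection on retest, and confirmed active means 100% protection reproducibly. The underlying data came from a formazan growth assay in HIV-1-infected CEM cells.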

| Compound | outcome | EC50 | IC50 |
| --- | --- | --- | --- |
| COc1ccc2c(c1)CC1NC2Cc2ccccc21 (configuration not stated) | inactive | – | – |
| COC(=O)N/N=C(\C)C(CN(C)C)C(c1ccccc1)c1c(O)c2ccccc2oc1=O (configuration not stated) | – | > 28.8 µM | > 28.8 µM |
| CCN(CC)CC(=O)Nc1cc(Cl)ccc1OC | – | > 200 µM | 178 µM |
| COC(=O)/C(=N/NC(N)=O)C(C(=O)C(=O)Nc1ccc(C)cc1)c1nc2ccc(C(=O)c3ccccc3)cc2[nH]c1=O (configuration not stated) | – | > 33.1 µM | > 33.1 µM |
| COC(=O)C1=C(C(=O)OC)C(C(=O)OC)N2C=CC=CC2=C1C(=O)OC (configuration not stated) | – | > 200 µM | > 200 µM |
| CCC1C(c2cccc(OC)c2O)c2cc3c(cc2OC1N1CCCC1)OCO3 (configuration not stated) | – | > 200 µM | 8.51 µM |
| Cc1ccc([Si](O)(c2ccc(C)cc2)c2ccc(C)cc2)cc1 | – | > 200 µM | 12 µM |
| COc1cccc2c1C(=O)c1c(O)c3c(c(O)c1C2=O)CC(O)(C(O)CO)CC3OC1CC(N2CCOCC2)C(O)C(C)O1 (configuration not stated) | – | > 0.2 µM | 0.00355 µM |
| COc1c2c(cc3c1C(=O)c1c(O)cccc1C3=O)CC(O)CC2 (configuration not stated) | – | > 200 µM | > 200 µM |
| Cn1cc(NC(=O)Nc2cc(C(=O)Nc3cc(C(=O)Nc4cc(C(=O)Nc5cc(P(=O)(O)O)c6cccc(P(=O)(O)O)c6c5)n(C)c4)n(C)c3)n(C)c2)cc1C(=O)Nc1cc(C(=O)Nc2cc(C(=O)Nc3cc(P(=O)(O)O)c4cccc(P(=O)(O)O)c4c3)n(C)c2)n(C)c1 | – | 0.288 µM | 75.9 µM |
| Cc1ccc(-c2c3nc(c(-c4ccc(C)cc4)c4ccc([nH]4)c(-c4ccc(C)cc4)c4nc(c(-c5ccncc5)c5ccc2[nH]5)C=C4)C=C3)cc1.Cc1ccc(-c2c3nc(c(-c4ccc(C)cc4)c4ccc([nH]4)c(-c4ccc(C)cc4)c4nc(c(-c5ccncc5)c5ccc2[nH]5)C=C4)C=C3)cc1.Cc1ccc(-c2c3nc(c(-c4ccc(C)cc4)c4ccc([nH]4)c(-c4ccc(C)cc4)c4nc(c(-c5ccncc5)c5ccc2[nH]5)C=C4)C=C3)cc1.Cc1ccc(-c2c3nc(c(-c4ccc(C)cc4)c4ccc([nH]4)c(-c4ccc(C)cc4)c4nc(c(-c5ccncc5)c5ccc2[nH]5)C=C4)C=C3)cc1.O=S(=O)([O-])C(F)(F)F.[Pd] | – | > 25.1 µM | > 25.1 µM |
| O=C(Nc1ccc(Cl)cc1)/C(Cc1cccc[n+]1[O-])=N\Nc1ccc([N+](=O)[O-])cc1[N+](=O)[O-] | – | > 107 µM | > 107 µM |
| Oc1cc(Cl)cc2cc(Br)cnc12 | inactive | – | – |
| O=C(O)c1ccc(CSc2ccc(Cl)cc2)c([N+](=O)[O-])c1 | – | > 209 µM | 95.5 µM |
| CC(=O)O/N=C/c1ncccc1OC(C)=O | – | > 1120 µM | > 1120 µM |
| Cc1cn([C@@H]2O[C@H](CO[Si](C)(C)C(C)(C)C)[C@]3(O[C@H]3C(=O)NO)[C@H]2O[Si](C)(C)C(C)(C)C)c(=O)[nH]c1=O | – | > 200 µM | 1.17 µM |
| COc1cc2c(c(OC)c1OC)C(=O)C(Br)C2NC(=O)CCCCl (configuration not stated) | – | > 200 µM | > 200 µM |
| Nc1nc(N)c2nc(CNc3ccc(C(=O)NC(CCC(=O)O)C(=O)O)cc3F)cnc2n1 (configuration not stated) | – | > 200 µM | 0.0631 µM |
| CC1=C(C(=O)Nc2ccccc2)C(c2ccc3c(c2)OCO3)C(C(=O)Nc2ccccc2)=C(C)N1 | – | > 11.2 µM | > 11.2 µM |

| Compound | outcome | EC50 | IC50 |
| --- | --- | --- | --- |
| C[Si](C)(C)O[C@@H]1CCCC1NCC#N (some centres not stated) | inactive | – | – |
| CO[C@@H]1C=C[C@@]23c4cc5c(cc4CN(C[C@@H]2O)[C@H]3C1)OCO5 | – | > 603 µM | 1.1 µM |
| CCCn1c(SCC)c2ccccc2c1-c1nc(F)nc(F)n1 | – | > 8.13 µM | > 8.13 µM |
| CN1C2C=CC1c1c(C3=NC(C)(C)CO3)cccc12 (configuration not stated) | – | > 200 µM | > 200 µM |
| O=c1[nH]c2cnn(-c3ccccc3)c2c(=O)n1OS(=O)(=O)c1ccccc1 | – | > 200 µM | > 200 µM |
| N#Cc1cnc(N)nc1NCC1(CO)CC(CCc2ccccc2)C1 (configuration not stated) | – | > 200 µM | 7.24 µM |
| CC(C)(C)C(=O)/C=C/c1ccc(C#N)cc1 | inactive | – | 38.9 µM |
| CC(=O)NNc1nc(C)c(C(=O)/C=C/c2ccc(/C=C/C(=O)c3sc(NNC(C)=O)nc3C)cc2)s1 | – | > 49 µM | > 49 µM |
| O=S(=O)(O)c1ccc(N=Nc2cc(S(=O)(=O)O)c3ccccc3c2O)c2ccccc12 | – | > 100 µM | > 100 µM |
| Cc1ccc(S(=O)(=O)/N=C(\N)N(C)N=O)cc1 | – | > 200 µM | 63.1 µM |
| Cc1ccccc1N=Nc1c(S(=O)(=O)O)cc2cc(NC(=O)Nc3ccc4c(O)c(N=Nc5ccc6cc(S(=O)(=O)O)ccc6c5)c(S(=O)(=O)O)cc4c3)ccc2c1O | active | – | – |
| CC12CCC(C(=O)O1)C(C)(C)O2 (configuration not stated) | – | > 200 µM | > 200 µM |
| O=C(NNC(=O)c1ccncc1)C(=O)Nc1cc(Cl)c(Cl)cc1Cl | – | > 18.6 µM | > 18.6 µM |
| CC(C)CCCC(C)[C@H]1CCC2C3CCC4C[C@@H](CCCC(c5cc(Cl)c(O)c(C(=O)O)c5)c5cc(Cl)c(O)c(C(=O)O)c5)CC[C@]4(C)C3CC[C@@]21C (some centres not stated) | – | 8.91 µM | > 200 µM |
| Cc1c(/C=N/NC(=O)c2ccccc2O)c(=O)n(-c2ccccc2)n1C | – | > 200 µM | 69.2 µM |
| Cn1cc2c(=O)n(OS(=O)(=O)c3ccccc3)c(=O)[nH]c2n1 | – | > 200 µM | > 200 µM |
| NC(N)=Nc1ccc(N)cc1 | inactive | – | – |
| CCCN1CCC=C([Si](C)(C)C)C1 | inactive | – | – |
| COc1ccc(C2OC2C(=O)C23CC4CC(CC(C4)C2)C3)cc1 (configuration not stated) | – | > 200 µM | 52.5 µM |

| Compound | outcome | EC50 | IC50 |
| --- | --- | --- | --- |
| C/C(CC(=O)Nc1cccc(Cl)c1C)=N\N=C(N)N | – | > 91.2 µM | > 91.2 µM |
| C=C(CCCC(C)OC(=O)NC(C)c1cccc2ccccc12)[Si](C)(C)C (configuration not stated) | – | > 18.6 µM | > 18.6 µM |
| N#CC(NNC(=O)Cc1ccccc1)c1ccccc1O (configuration not stated) | – | > 129 µM | 17 µM |
| NS(=O)(=O)c1nnc(NC(=O)CCC(=O)O)s1 | – | > 200 µM | > 200 µM |
| O=C1CCCNn2c(nc3ncccc3c2=O)N1 | – | > 200 µM | 158 µM |
| CCOC(=O)N1C2C=C(C)C(C3C(C)C(=O)N31)N(C(=O)c1ccccc1)O2 (configuration not stated) | – | > 355 µM | > 355 µM |
| O=C(Cc1ccccc1)N/N=C(/CCN1CCCC1)CC(c1ccccc1)c1c(O)c2ccccc2oc1=O (configuration not stated) | inactive | – | – |
| O=C1CCC(=O)c2cc(Br)ccc2N1 | – | > 141 µM | > 141 µM |
| CSCCC(NC(=O)OCc1ccccc1)NC(=O)OCc1ccccc1 | – | > 200 µM | > 200 µM |
| COc1ccc(C(=O)CCC(NC(C)=O)C(=O)O)cc1 (configuration not stated) | – | > 100 µM | > 100 µM |
| Cc1c(Cl)c(=O)oc2cc(O)ccc12 | – | > 324 µM | 174 µM |
| CC1(C)C(=NO)C(C)(C)C1=NO | inactive | – | – |
| CCC1Sc2cc(OC)cc3c2N(CCN3)C1=O (configuration not stated) | – | > 200 µM | 57.5 µM |
| CC(C)CC(NC(=O)C(NC(=O)C(CO)NC(=O)C(C)NC(=O)C(CCCN=C(N)N)NC(=O)C(C)NC(=O)CN)C(C)C)C(=O)NC(CO)C(N)=O (configuration not stated) (H-GARASVLS-NH2; configuration not given here) | inactive | – | – |
| Nc1cccc(S(=O)(=O)NCC(=O)O)c1 | inactive | – | – |
| CCOc1c(Cc2ccccc2)c(=O)nc2c(-c3ccccc3)cncn12 | – | > 200 µM | 42.7 µM |
| CC(=O)NNc1nc(C)c(C(/C=C/c2ccc3c(c2)OCO3)=N/NC(=O)c2ccncc2)s1 | – | > 50.1 µM | > 50.1 µM |
| O=C1NC(N2CCCC(CO)C2)=N/C1=C\c1ccc(Cl)cc1 (configuration not stated) | – | > 200 µM | 115 µM |
